Reference: article PMC10518257 (Nature Cancer, 2023)
Values joined by “and” are separate entries in the source; they are usually repeats but may differ in a detail not shown here. Equal entries are not always repeated. Where two headings read alike, the source gives them in different places.

How the values were obtained:
[1] = Animal weight of tumor-bearing mice
[2] = tested on: Ba/F3-CCDC6::RET^S904F; assay: Growth inhibition assay in Ba/F3 cells (CellTiter-Glo, 72 h); assay type: cell-based
[3] = tested on: Ba/F3 cells; assay: as above; assay type: cell-based; details: Mus musculus
[4] = tested on: Ba/F3 cells expressing KIF5B–RET^G810S; assay: as above; assay type: cell-based; details: replicate Sets 1-3

COCc1ccc(NC(=O)c2c(C#CCN3CCOCC3)n(C3(C)CC3)c3ncnc(N)c23)cc1 [Vepafestinib, 4-amino-N-[4-(methoxymethyl)phenyl]-7-(1-methylcyclopropyl)-6-[3-(morpholin-4-yl)prop-1-yn-1-yl]-7H-pyrrolo[2,3-d]pyrimidine-5-carboxamide]
Animal Weight, Mean ([1]; Ba/F3-KIF5B::RET (Fig 8e), 25 mg/kg BID, day 15): 27.6 g | Animal Weight, Mean ([1]; Ba/F3-KIF5B::RET (Fig 8e), 50 mg/kg BID, day 0): 25.4 g | Animal Weight, Mean ([1]; Ba/F3-KIF5B::RET (Fig 8e), 50 mg/kg BID, day 4): 27.8 g | Animal Weight, Mean ([1]; Ba/F3-KIF5B::RET (Fig 8e), 50 mg/kg BID, day 8): 26.3 g | Animal Weight, Mean ([1]; Ba/F3-KIF5B::RET (Fig 8e), 50 mg/kg BID, day 11): 25.3 g | Animal Weight, Mean ([1]; Ba/F3-KIF5B::RET (Fig 8e), 50 mg/kg BID, day 15): 25.9 g | Animal Weight, Mean ([1]; Ba/F3-KIF5B::RET G810R (Fig 8f), Vepafestinib 10 mg/kg BID, day 1): 25.86 g | Animal Weight, Mean ([1]; Ba/F3-KIF5B::RET G810R (Fig 8f), Vepafestinib 10 mg/kg BID, day 4): 25.30 g | Animal Weight, Mean ([1]; Ba/F3-KIF5B::RET G810R (Fig 8f), Vepafestinib 10 mg/kg BID, day 8): 24.90 g | Animal Weight, Mean ([1]; Ba/F3-KIF5B::RET G810R (Fig 8f), Vepafestinib 10 mg/kg BID, day 11): 25.72 g | Animal Weight, Mean ([1]; Ba/F3-KIF5B::RET G810R (Fig 8f), Vepafestinib 10 mg/kg BID, day 15): 25.22 g | Animal Weight, Mean ([1]; Ba/F3-KIF5B::RET G810R (Fig 8g), Vepafestinib 50 mg/kg BID, day 1): 23.9 g | Animal Weight, Mean ([1]; Ba/F3-KIF5B::RET G810R (Fig 8g), Vepafestinib 50 mg/kg BID, day 4): 24.7 g | Animal Weight, Mean ([1]; Ba/F3-KIF5B::RET G810R (Fig 8g), Vepafestinib 50 mg/kg BID, day 8): 24.9 g | Animal Weight, Mean ([1]; Ba/F3-KIF5B::RET G810R (Fig 8g), Vepafestinib 50 mg/kg BID, day 11): 24.3 g | Animal Weight, Mean ([1]; Ba/F3-KIF5B::RET G810R (Fig 8g), Vepafestinib 50 mg/kg BID, day 15): 24.2 g | Animal Weight (g), Mean ([1]; Ba/F3-KIF5B::RET tumor-bearing mice (Ext. Data Fig 8i), 50 mg/kg BID, day 1): 25.8 g | Animal Weight (g), Mean ([1]; Ba/F3-KIF5B::RET tumor-bearing mice (Ext. Data Fig 8i), 50 mg/kg BID, day 4): 26.2 g | Animal Weight (g), Mean ([1]; Ba/F3-KIF5B::RET tumor-bearing mice (Ext. Data Fig 8i), 50 mg/kg BID, day 8): 26.0 g | Animal Weight (g), Mean ([1]; Ba/F3-KIF5B::RET tumor-bearing mice (Ext. Data Fig 8i), 50 mg/kg BID, day 11): 25.3 g | Animal Weight (g), Mean ([1]; Ba/F3-KIF5B::RET tumor-bearing mice (Ext. Data Fig 8i), 50 mg/kg BID, day 15): 26.9 g | Animal Weight (g), Mean ([1]; Ba/F3-KIF5B::RET tumor-bearing mice (Ext. Data Fig 8h), 50 mg/kg BID, day 1): 28.4 g | Animal Weight (g), Mean ([1]; Ba/F3-KIF5B::RET tumor-bearing mice (Ext. Data Fig 8h), 50 mg/kg BID, day 4): 28.5 g | Animal Weight (g), Mean ([1]; Ba/F3-KIF5B::RET tumor-bearing mice (Ext. Data Fig 8h), 50 mg/kg BID, day 8): 29.3 g | Animal Weight (g), Mean ([1]; Ba/F3-KIF5B::RET tumor-bearing mice (Ext. Data Fig 8h), 50 mg/kg BID, day 11): 29.0 g | Animal Weight (g), Mean ([1]; Ba/F3-KIF5B::RET tumor-bearing mice (Ext. Data Fig 8h), 50 mg/kg BID, day 15): 29.0 g | effect on animal health or animal weight ([1]; ECLC5B xenograft, all dosages, P > 0.05): No dosage of vepafestinib had any adverse effect | Animal Weight ([1]; ECLC5 Xenografts, 25 mg/kg BID, treatment day 7, individual animals, 25 mg/kg): 24 g (2×) and 22 g and 21 g and 27 g | Animal Weight ([1]; ECLC5 Xenografts, 25 mg/kg BID, treatment day 11, individual animals, 25 mg/kg): 24 g and 22 g | Animal Weight ([1]; ECLC5 Xenografts, 50 mg/kg BID, treatment day 7, individual animals, 50 mg/kg): 20 g and 23 g (2×) and 21 g and 22 g | Animal Weight ([1]; ECLC5 Xenografts, 50 mg/kg QD, treatment day 7, individual animals, 50 mg/kg): 22 g (2×) and 21 g and 23 g and 24 g | Animal Weight ([1]; ECLC5 Xenografts, 100 mg/kg QD, treatment day 7, individual animals, 100 mg/kg): 22 g (3×) and 24 g and 25 g | Animal Weight (g), Mean ([1]; LC-2/ad xenograft mice, 25 mg/kg BID, day 0): 25.9 g | Animal Weight (g), Mean ([1]; LC-2/ad xenograft mice, 25 mg/kg BID, day 4): 25.1 g | Animal Weight (g), Mean ([1]; LC-2/ad xenograft mice, 25 mg/kg BID, day 8): 24.6 g | Animal Weight (g), Mean ([1]; LC-2/ad xenograft mice, 25 mg/kg BID, day 11): 24.4 g | Animal Weight (g), Mean ([1]; LC-2/ad xenograft mice, 25 mg/kg BID, day 15): 23.5 g | Animal Weight (g), Mean ([1]; LC-2/ad xenograft mice, 50 mg/kg BID, day 0): 25.1 g | Animal Weight (g), Mean ([1]; LC-2/ad xenograft mice, 50 mg/kg BID, day 4): 25.3 g | Animal Weight (g), Mean ([1]; LC-2/ad xenograft mice, 50 mg/kg BID, day 8): 24.2 g | Animal Weight (g), Mean ([1]; LC-2/ad xenograft mice, 50 mg/kg BID, day 11): 24.4 g | Animal Weight (g), Mean ([1]; LC-2/ad xenograft mice, 50 mg/kg BID, day 15): 23.5 g | Animal Weight (g), Mean ([1]; LC-2/ad xenograft mice, 50 mg/kg QD, day 0): 25.0 g | Animal Weight (g), Mean ([1]; LC-2/ad xenograft mice, 50 mg/kg QD, day 4): 24.8 g | Animal Weight (g), Mean ([1]; LC-2/ad xenograft mice, 50 mg/kg QD, day 8): 24.7 g | Animal Weight (g), Mean ([1]; LC-2/ad xenograft mice, 50 mg/kg QD, day 11): 25.0 g | Animal Weight (g), Mean ([1]; LC-2/ad xenograft mice, 50 mg/kg QD, day 15): 24.3 g | Animal Weight ([1]; NIH-3T3-CCDC6::RET xenografts, 25 mg/kg BID, day 0, 25 mg/kg): 22 g and 21 g and 24 g | Animal Weight ([1]; NIH-3T3-CCDC6::RET xenografts, 25 mg/kg BID, day 2, 25 mg/kg): 23 g and 21 g and 22 g | Animal Weight ([1]; NIH-3T3-CCDC6::RET xenografts, 25 mg/kg BID, day 5, 25 mg/kg): 23 g and 22 g and 24 g | Animal Weight ([1]; NIH-3T3-CCDC6::RET xenografts, 25 mg/kg BID, day 8, 25 mg/kg): 23 g and 22 g | Animal Weight ([1]; NIH-3T3-CCDC6::RET xenografts, 25 mg/kg QD, day 0, 25 mg/kg): 24 g and 22 g and 23 g and 21 g | Animal Weight ([1]; NIH-3T3-CCDC6::RET xenografts, 25 mg/kg QD, day 2, 25 mg/kg): 25 g and 24 g and 22 g | Animal Weight ([1]; NIH-3T3-CCDC6::RET xenografts, 25 mg/kg QD, day 5, 25 mg/kg): 22 g and 23 g and 24 g | Animal Weight ([1]; NIH-3T3-CCDC6::RET xenografts, 25 mg/kg QD, day 8, 25 mg/kg): 25 g and 23 g and 24 g | Animal Weight ([1]; NIH-3T3-CCDC6::RET xenografts, 50 mg/kg BID, day 0, 50 mg/kg): 22 g and 19 g and 21 g | Animal Weight ([1]; NIH-3T3-CCDC6::RET xenografts, 50 mg/kg BID, day 2, 50 mg/kg): 20 g and 24 g and 23 g and 21 g and 22 g | Animal Weight ([1]; NIH-3T3-CCDC6::RET xenografts, 50 mg/kg BID, day 5, 50 mg/kg): 21 g and 24 g and 23 g and 20 g | Animal Weight ([1]; NIH-3T3-CCDC6::RET xenografts, 50 mg/kg BID, day 8, 50 mg/kg): 21 g and 23 g and 24 g | Animal Weight ([1]; NIH-3T3-CCDC6::RET xenografts, 50 mg/kg QD, day 0, 50 mg/kg): 22 g and 21 g | Animal Weight ([1]; NIH-3T3-CCDC6::RET xenografts, 50 mg/kg QD, day 2, 50 mg/kg): 24 g and 23 g | Animal Weight ([1]; NIH-3T3-CCDC6::RET xenografts, 50 mg/kg QD, day 5, 50 mg/kg): 23 g and 24 g | Animal Weight ([1]; NIH-3T3-CCDC6::RET xenografts, 50 mg/kg QD, day 8, 50 mg/kg): 24 g and 25 g | Animal Weight ([1]; NIH-3T3-CCDC6::RET xenografts, 100 mg/kg QD, day 0, 100 mg/kg): 22 g and 21 g and 20 g and 19 g | Animal Weight ([1]; NIH-3T3-CCDC6::RET xenografts, 100 mg/kg QD, day 2, 100 mg/kg): 23 g and 22 g and 19 g | Animal Weight ([1]; NIH-3T3-CCDC6::RET xenografts, 100 mg/kg QD, day 5, 100 mg/kg): 23 g and 22 g and 24 g and 21 g | Animal Weight ([1]; NIH-3T3-CCDC6::RET xenografts, 100 mg/kg QD, day 8, 100 mg/kg): 23 g and 22 g and 24 g and 21 g | GI50 ([2]; BaF3/CCDC6-RET, read-out: GI50 values, Ba/F3-CCDC6::RET S904F, individual sets (replicate experiments)): 28.5 nM | GI50 ([2]; Mus musculus, BaF3, 72 h, read-out: GI50 value (Mean ± SD), Ba/F3-CCDC6::RET^S904F, CellTiter-Glo, 72 h): 24.7 ± 5 nM | GI50 ([2]; read-out: GI50 values, Ba/F3-CCDC6::RET S904F, individual sets (replicate experiments)): 26.7 nM and 19.1 nM | GI50 ([3]; BaF3, 72 h, read-out: GI50 value (Mean ± SD), Ba/F3, CellTiter-Glo, 72 h): > 10000 nM | GI50 ([3]; BaF3, Ba/F3 (parental), replicate Sets 1-3): > 10000 nM | GI50 ([4]; Ba/3-KIF5B-RET-G810S): 14.7 nM and 13.1 nM | GI50 ([4]; Mus musculus, BaF3, Ba/3-KIF5B-RET-G810S): 7.93 nM
